# Test results from patent US20110077251A1, “NOVEL 17 BETA LUPANE DERIVATIVES” (priority 2009, published 2011).
# System: HIVIIIB
# Experiment: HIV-1 replication in MT2 cell line with 30% human serum (RT activity in supernatant)
# Format: cell-based
# Settings: Human immunodeficiency virus 1, 120 h, MT2 cells, day 5 after infection, average if tested more than once, read-out: MT2 (HIVIIIB) with human serum IC50 range
# Procedure: HIV-1 Replication in MT2 cell line with and without 30% human serum: The cells are infected at a Multiciplicity of Infection (MOI) of 0.5 for 3 h and then washed twice with complete media to remove residual virus. Cells are then resuspended at 0.5×10^6/ml in complete medium (RPMI, 10% FBS, 1% sodium pyruvate), and seeded into 96-well plates (6.25×10^4/well). The cells are cultured in the presence or absence of various concentrations of test compounds in serial dilutions for 3 days at 37° C. The test compounds are serially diluted in complete medium supplemented or not with 30% human serum. After 3 days, 100 μL of cultured medium with cells are replaced with 120 μL of freshly diluted test compounds in complete medium containing or not 30% Human serum. The level of HIV-1 replication is determined at days 5 after infection by the presence of viral RT activity in harvested supernatant fluid. The IC50 values for the virus replication are determined by using GRAPHPAD PRISM software.
# The IC50 of the compounds tested in accordance with the HIV replication activity assay MT2 (HIVIIIB) with or without human serum are represented in Table 6.
row,SMILES,IC50 [nM]
1,"C=C(C)[C@@H]1CC[C@]2(NC(=O)Nc3nnc(C)o3)CC[C@]3(C)[C@H](CC[C@@H]4[C@@]5(C)CC[C@H](OC(=O)CC(C)(C)C(=O)O)C(C)(C)[C@@H]5CC[C@]43C)[C@@H]12 [Cpd 11-15, 3β-O-(3′,3′-Dimethylsuccinyl)-17β-[3-(5-methyl-[1,3,4]oxadiazol-2-yl)-ureido]-28-norlup-20(29)-ene]",< 199
2,"C=C(C)[C@@H]1CC[C@]2(NC(=O)NC(C)C)CC[C@]3(C)[C@H](CC[C@@H]4[C@@]5(C)CC[C@H](OC(=O)CC(C)(C)C(=O)O)C(C)(C)[C@@H]5CC[C@]43C)[C@@H]12 [Cpd 11-16, 3β-O-(3′,3′-Dimethylsuccinyl)-17β-(N′-isopropyl-ureido)-28-norlup-20(29)-ene]",200 to 999
3,"C=C(C)[C@@H]1CC[C@]2(NC(=O)Nc3ccc(F)cc3)CC[C@]3(C)[C@H](CC[C@@H]4[C@@]5(C)CC[C@H](OC(=O)CC(C)(C)C(=O)O)C(C)(C)[C@@H]5CC[C@]43C)[C@@H]12 [Cpd 11-17, 3β-O-(3′,3′-Dimethylsuccinyl)-17β-(N′-4-fluorophenyl-ureido)-28-norlup-20(29)-ene]",< 199
4,"C=C(C)[C@@H]1CC[C@]2(NC(=O)NCc3ccc(F)cc3)CC[C@]3(C)[C@H](CC[C@@H]4[C@@]5(C)CC[C@H](OC(=O)CC(C)(C)C(=O)O)C(C)(C)[C@@H]5CC[C@]43C)[C@@H]12 [Cpd 11-18, 3β-O-(3′,3′-Dimethylsuccinyl)-17β-(N′-4-fluorophenylmethyl-ureido)-28-norlup-20(29)-ene]",< 199
5,"C=C(C)[C@@H]1CC[C@]2(NC(=O)Nc3nccs3)CC[C@]3(C)[C@H](CC[C@@H]4[C@@]5(C)CC[C@H](OC(=O)CC(C)(C)C(=O)O)C(C)(C)[C@@H]5CC[C@]43C)[C@@H]12 [Cpd 11-19, 3β-O-(3′,3′-Dimethylsuccinyl)-17β-(N′-thiazol-2-yl-ureido)-28-norlup-20(29)-ene]",< 199
6,"C=C(C)[C@@H]1CC[C@]2(NC(=O)NCC3CCCCC3)CC[C@]3(C)[C@H](CC[C@@H]4[C@@]5(C)CC[C@H](OC(=O)CC(C)(C)C(=O)O)C(C)(C)[C@@H]5CC[C@]43C)[C@@H]12 [Cpd 11-20, 3β-O-(3′,3′-Dimethylsuccinyl)-17β-(N′-cyclohexylmethyl-ureido)-28-norlup-20(29)-ene]",< 199
7,"C=C(C)[C@@H]1CC[C@]2(NC(=O)NCC3CCOCC3)CC[C@]3(C)[C@H](CC[C@@H]4[C@@]5(C)CC[C@H](OC(=O)CC(C)(C)C(=O)O)C(C)(C)[C@@H]5CC[C@]43C)[C@@H]12 [Cpd 11-21, 3β-O-(3′,3′-Dimethylsuccinyl)-17β-(N′-tetrahydropyran-4-ylmethyl-ureido)-28-norlup-20(29)-ene]",< 199
8,"C=C(C)[C@@H]1CC[C@]2(NC(=O)NC3CCCCC3)CC[C@]3(C)[C@H](CC[C@@H]4[C@@]5(C)CC[C@H](OC(=O)CC(C)(C)C(=O)O)C(C)(C)[C@@H]5CC[C@]43C)[C@@H]12 [Cpd 11-22, 3β-O-(3′,3′-Dimethylsuccinyl)-17β-(N′-cyclohexyl-ureido)-28-norlup-20(29)-ene]",< 199
9,"C=C(C)[C@@H]1CC[C@]2(NC(=O)N[C@@H](C)c3ccccc3)CC[C@]3(C)[C@H](CC[C@@H]4[C@@]5(C)CC[C@H](OC(=O)CC(C)(C)C(=O)O)C(C)(C)[C@@H]5CC[C@]43C)[C@@H]12 [Cpd 11-23, 3β-O-(3′,3′-Dimethylsuccinyl)-17β-(N′-(S)-1-phenyl-ethyl-ureido)-28-norlup-20(29)-ene]",< 199
10,"C=C(C)[C@@H]1CC[C@]2(NC(=O)NCC(C)C)CC[C@]3(C)[C@H](CC[C@@H]4[C@@]5(C)CC[C@H](OC(=O)CC(C)(C)C(=O)O)C(C)(C)[C@@H]5CC[C@]43C)[C@@H]12 [Cpd 11-24, 3β-O-(3′,3′-Dimethylsuccinyl)-17β-(N′-isobutylureido)-28-norlup-20(29)-ene]",< 199
11,"C=C(C)[C@@H]1CC[C@]2(NC(=O)NC3CCC(F)(F)CC3)CC[C@]3(C)[C@H](CC[C@@H]4[C@@]5(C)CC[C@H](OC(=O)CC(C)(C)C(=O)O)C(C)(C)[C@@H]5CC[C@]43C)[C@@H]12 [Cpd 11-25, 3β-O-(3′,3′-Dimethylsuccinyl)-17β-(N′-4,4-difluorocyclohexyl-ureido)-28-norlup-20(29)-ene]",< 199
12,"C=C(C)[C@@H]1CC[C@]2(NC(=O)Nc3ccncc3)CC[C@]3(C)[C@H](CC[C@@H]4[C@@]5(C)CC[C@H](OC(=O)CC(C)(C)C(=O)O)C(C)(C)[C@@H]5CC[C@]43C)[C@@H]12 [Cpd 11-26, 3β-O-(3′,3′-Dimethylsuccinyl)-17β-(N′-pyridin-4-yl-ureido)-28-norlup-20(29)-ene]",< 199
13,"C=C(C)[C@@H]1CC[C@]2(NC(=O)N[C@H](C)c3ccccc3)CC[C@]3(C)[C@H](CC[C@@H]4[C@@]5(C)CC[C@H](OC(=O)CC(C)(C)C(=O)O)C(C)(C)[C@@H]5CC[C@]43C)[C@@H]12 [Cpd 11-27, 3β-O-(3′,3′-Dimethylsuccinyl)-17β-(N′-(R)-1-phenyl-ethyl-ureido)-28-norlup-20(29)-ene]",< 199
14,"C=C(C)[C@@H]1CC[C@]2(NC(=O)NC(C)(C)c3ccccc3)CC[C@]3(C)[C@H](CC[C@@H]4[C@@]5(C)CC[C@H](OC(=O)CC(C)(C)C(=O)O)C(C)(C)[C@@H]5CC[C@]43C)[C@@H]12 [Cpd 11-28, 3β-O-(3′,3′-Dimethylsuccinyl)-17β-[N′-(1-methyl-1-phenylethyl)-ureido]-28-norlup-20(29)-ene]",< 199
15,"C=C(C)[C@@H]1CC[C@]2(NC(=O)N3CCCC3)CC[C@]3(C)[C@H](CC[C@@H]4[C@@]5(C)CC[C@H](OC(=O)CC(C)(C)C(=O)O)C(C)(C)[C@@H]5CC[C@]43C)[C@@H]12 [Cpd 11-29, 3β-O-(3′,3′-Dimethylsuccinyl)-17β-[(pyrrolidine-1-carbonyl)-amino]-28-norlup-20(29)-ene]",< 199
16,"C=C(C)[C@@H]1CC[C@]2(NC(=O)c3nnc(C)o3)CC[C@]3(C)[C@H](CC[C@@H]4[C@@]5(C)CC[C@H](OC(=O)CC(C)(C)C(=O)O)C(C)(C)[C@@H]5CC[C@]43C)[C@@H]12 [Cpd 13-12, 3β-O-(3′,3′-Dimethylsuccinyl)-17β-[(5-methyl-[1,3,4]oxadiazole-2-carbonyl)-amino]-28-norlup-20(29)-ene]",< 199
17,"C=C(C)[C@@H]1CC[C@]2(NC(=O)c3cscn3)CC[C@]3(C)[C@H](CC[C@@H]4[C@@]5(C)CC[C@H](OC(=O)CC(C)(C)C(=O)O)C(C)(C)[C@@H]5CC[C@]43C)[C@@H]12 [Cpd 13-13, 3β-O-(3′,3′-Dimethylsuccinyl)-17β-[(thiazol-4-ylcarbonyl)-amino]-28-norlup-20(29)-ene]",< 199
18,"C=C(C)[C@@H]1CC[C@]2(NC(=O)c3ccncc3)CC[C@]3(C)[C@H](CC[C@@H]4[C@@]5(C)CC[C@H](OC(=O)[C@H]6CCC[C@@H](C(=O)O)C6)C(C)(C)[C@@H]5CC[C@]43C)[C@@H]12 [Cpd 13-15, 3β-O-(cis-Cyclohexane-3′-carboxylic acid-1′-carboxyl)-17β-(pyridin-4-ylcarbonyl)-amino-28-norlup-20(29)-ene]",> 1000
